Measurements published in patent US20240228458A1, “PYRIMIDINE DERIVATIVE HAVING PROTEIN KINASE INHIBITORY ACTIVITY, AND THERAPEUTIC PHARMACEUTICAL COMPOSITION COMPRISING SAME” (THERAPEX CO., LTD., priority 2021, published 2024).

Key:
Assay type in all cases: cell-based
[1] = system: Ba/F3 cells expressing EGFR-wt; test: Growth inhibition (GI50) of Ba/F3 cells expressing EGFR-wt, Celltiter glo; details: Mus musculus, BaF3, 72 h
Summary of the method: (§1)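 Ba/F3 cells carrying each EGFR variant were plated at 100,000 cells/ml; after 4 h, compound was added as 10-point 4-fold dilutions (top stock 2 mM, 0.5% DMSO). After 72 h at 37 °C, viability was read by CellTiter-Glo; GI50 is the molar concentration (μM) giving 50% growth inhibition.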

[2] = system: Ba/F3 cells expressing del19/T790M/C797S (EGFR-DTC); test: Growth inhibition (GI50) of Ba/F3 cells expressing del19/T790M/C797S (EGFR-DTC), Celltiter glo; details: Mus musculus, BaF3, 72 h
Summary of the method: as §1

[3] = system: Ba/F3 cells expressing L858R/T790M/C797S (EGFR-LTC); test: Growth inhibition (GI50) of Ba/F3 cells expressing L858R/T790M/C797S (EGFR-LTC), Celltiter glo; details: Mus musculus, BaF3, 72 h
Summary of the method: as §1

[4] = system: Ba/F3 cells expressing del19/T790M (EGFR-DT); test: Growth inhibition (GI50) of Ba/F3 cells expressing del19/T790M (EGFR-DT), Celltiter glo; details: Mus musculus, BaF3, 72 h
Summary of the method: as §1

[5] = system: Ba/F3 cells expressing L858R/T790M (EGFR-LT); test: Growth inhibition (GI50) of Ba/F3 cells expressing L858R/T790M (EGFR-LT), Celltiter glo; details: Mus musculus, BaF3, 72 h
Summary of the method: as §1

parental Ba/F3 cell line = test: Growth inhibition (GI50) of the parental Ba/F3 cell line (not introduced with EGFR variants), Celltiter glo; details: Mus musculus, BaF3, 72 h, parental Ba/F3 cells
Summary of the method: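 Parental Ba/F3 cells (100,000 cells/ml) were treated with 10-point, 4-fold compound dilutions (0.5% DMSO; top stock 2 mM) for 72 h at 37 °C, 5% CO2. Viability was read by CellTiter-Glo; GI50 is the concentration (μM) giving 50% growth inhibition.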

Structure (SMILES)	GI50 [1]	GI50 [2]	GI50 [3]	GI50 [4]	GI50 [5]	GI50 (parental Ba/F3 cell line)
COc1cc(N2CCC(N3CCCN(C)CC3)CC2)c(Cl)cc1Nc1ncc(Br)c(Nc2cc(Cl)ccc2NS(C)(=O)=O)n1 [Example 95, N-(2-((5-bromo-2-((5-chloro-2-methoxy-4-(4-(4-methyl-1,4-diazepan-1-yl)piperidin-1-yl)phenyl)amino)pyrimidin-4-yl)amino)-4-chlorophenyl)methanesulfonamide]	100 to 500 nM	1 to 25 nM	1 to 25 nM	1 to 25 nM	1 to 25 nM	500 to 2000 nM
COc1ccc(NS(C)(=O)=O)c(Nc2nc(Nc3cc(C)c(N4CCC(N5CCN(C)CC5)CC4)cc3Cl)ncc2Cl)c1 [Example 200, N-(2-((5-chloro-2-((2-chloro-5-methyl-4-(4-(4-methylpiperazin-1-yl)piperidin-1-yl)phenyl)amino)pyrimidin-4-yl)amino)-4-methoxyphenyl)methanesulfonamide]	100 to 500 nM	25 to 100 nM	25 to 100 nM	1 to 25 nM	25 to 100 nM	100 to 500 nM
COc1nc(N2CCC(N3CCN(C)CC3)CC2)c(C)cc1Nc1ncc(Cl)c(Nc2ccc(F)cc2NS(C)(=O)=O)n1 [Example 15, N-(2-((5-chloro-2-((2-methoxy-5-methyl-6-(4-(4-methylpiperazin-1-yl)piperidin-1-yl)pyridin-3-yl)amino)pyrimidin-4-yl)amino)-5-fluorophenyl)methanesulfonamide]	500 to 2000 nM	100 to 500 nM	100 to 500 nM	1 to 25 nM	100 to 500 nM	500 to 2000 nM
CN1CCN(C2CCN(c3cc(Cl)c(Nc4ncc(Cl)c(Nc5cc6c(cc5NS(C)(=O)=O)CCO6)n4)cc3Cl)CC2)CC1 [Example 205, N-(6-((5-chloro-2-((2,5-dichloro-4-(4-(4-methylpiperazin-1-yl)piperidin-1-yl)phenyl)amino)pyrimidin-4-yl)amino)-2,3-dihydrobenzofuran-5-yl)methanesulfonamide]	25 to 100 nM	1 to 25 nM	1 to 25 nM	1 to 25 nM	1 to 25 nM	2000 to 10000 nM
COc1ccc(NS(C)(=O)=O)c(Nc2nc(Nc3cc(C)c(N4CCC(N5CCCN(C)CC5)CC4)cc3OC)ncc2Cl)c1 [Example 204, N-(2-((5-chloro-2-((2-methoxy-5-methyl-4-(4-(4-methyl-1,4-diazepan-1-yl)piperidin-1-yl)phenyl)amino)pyrimidin-4-yl)amino)-4-methoxyphenyl)methanesulfonamide]	25 to 100 nM	1 to 25 nM	25 to 100 nM	1 to 25 nM	25 to 100 nM	2000 to 10000 nM
Cc1cc(Nc2ncc(Br)c(Nc3ccccc3N=S(C)(C)=O)n2)c(Cl)cc1N1CCC(N2CCN(C)CC2)CC1 [Example 144]	500 to 2000 nM	500 to 2000 nM	100 to 500 nM	500 to 2000 nM	100 to 500 nM	500 to 2000 nM
COc1cc(N2CCC(N3CCN(C)CC3)CC2)c(C)cc1Nc1nnc(Cl)c(Nc2cc(Cl)ccc2NS(C)(=O)=O)n1 [Example 152, N-(4-chloro-2-((6-chloro-3-((-2-methoxy-5-methyl-4-(4-(4-methylpiperazin-1-yl)piperidin-1-yl)phenyl)amino)-1,2,4-triazin-5-yl)amino)phenyl)methanesulfonamide]	100 to 500 nM	1 to 25 nM	1 to 25 nM	1 to 25 nM	1 to 25 nM	500 to 2000 nM
COc1ccc(NS(C)(=O)=O)c(Nc2nc(Nc3cc(C)c(N4CCC(N5CCCC(N(C)C)C5)CC4)cc3Cl)ncc2Cl)c1 (stereo not drawn) [Example 236, N-(2-((5-chloro-2-((2-chloro-4-(3-(dimethylamino)-[1,4′-bipiperidin]-1′-yl)-5-methylphenyl)amino)pyrimidin-4-yl)amino)-4-methoxyphenyl)methanesulfonamide]	2000 to 10000 nM	100 to 500 nM	100 to 500 nM	100 to 500 nM	100 to 500 nM	2000 to 10000 nM

Now from value to molecule, other results behind:

GI50 [1]	GI50 [2]	GI50 [3]	GI50 [4]	GI50 [5]	Structure (SMILES)	GI50 (parental Ba/F3 cell line)
25 to 100 nM	100 to 500 nM	1 to 25 nM	1 to 25 nM	1 to 25 nM	CCc1cc(Nc2ncc(Br)c(Nc3cc4c(cc3NS(C)(=O)=O)CCO4)n2)c(OC)cc1N1CCC(N2CCN(C)CC2)CC1 [Example 184, N-(6-((5-bromo-2-((5-ethyl-2-methoxy-4-(4-(4-methylpiperazin-1-yl)piperidin-1-yl)phenyl)amino)pyrimidin-4-yl)amino)-2,3-dihydrobenzofuran-5-yl)methanesulfonamide]	500 to 2000 nM
100 to 500 nM	1 to 25 nM	25 to 100 nM	1 to 25 nM	1 to 25 nM	CCc1cc(Nc2ncc(Cl)c(Nc3cc4c(cc3NS(C)(=O)=O)CCO4)n2)c(OC)cc1N1CCC(N2CCN(C)CC2)CC1 [Example 206, N-(6-((5-chloro-2-((5-ethyl-2-methoxy-4-(4-(4-methylpiperazin-1-yl)piperidin-1-yl)phenyl)amino)pyrimidin-4-yl)amino)-2,3-dihydrobenzofuran-5-yl)methanesulfonamide]	2000 to 10000 nM
25 to 100 nM	100 to 500 nM	25 to 100 nM	1 to 25 nM	25 to 100 nM	COc1cc(N2CCC(N3CCN(C4CC4)CC3)CC2)c(C)cc1Nc1ncc(Br)c(Nc2cc3c(cc2N(C)S(C)(=O)=O)CCO3)n1 [Example 261, N-(6-((5-bromo-2-((4-(4-(4-cyclopropylpiperazin-1-yl)piperidin-1-yl)-2-methoxy-5-methylphenyl)amino)pyrimidin-4-yl)amino)-2,3-dihydrobenzofuran-5-yl)-N-methylmethanesulfonamide]	2000 to 10000 nM
500 to 2000 nM	100 to 500 nM	1 to 25 nM	100 to 500 nM	1 to 25 nM	COc1nc(N2CCC(N3CCN(C)CC3)CC2)c(C)cc1Nc1ncc(Br)c(Nc2cc3c(cc2NS(C)(=O)=O)CCO3)n1 [Example 240, N-(6-((5-bromo-2-((2-methoxy-5-methyl-6-(4-(4-methylpiperazin-1-yl)piperidin-1-yl)pyridin-3-yl)amino)pyrimidin-4-yl)amino)-2,3-dihydrobenzofuran-5-yl)methanesulfonamide]	2000 to 10000 nM
100 to 500 nM	1 to 25 nM	1 to 25 nM	1 to 25 nM	1 to 25 nM	CCc1cc(Nc2ncc(Br)c(Nc3cc(Cl)ccc3NS(C)(=O)=O)n2)c(OC)cc1N1CCC(N2CCN(C)CC2)CC1 [Example 191, N-(2-((5-bromo-2-((5-ethyl-2-methoxy-4-(4-(4-methylpiperazin-1-yl)piperidin-1-yl)phenyl)amino)pyrimidin-4-yl)amino)-4-chlorophenyl)methanesulfonamide]	2000 to 10000 nM
100 to 500 nM	25 to 100 nM	25 to 100 nM	25 to 100 nM	100 to 500 nM	COc1cc(N2CCC(N3CCCN(C)CC3)CC2)c(C)cc1Nc1ncc(Br)c(Nc2ccc(F)cc2NS(C)(=O)=O)n1 [Example 38, N-(2-((5-bromo-2-((2-methoxy-5-methyl-4-(4-(4-methyl-1,4-diazepan-1-yl)piperidin-1-yl)phenyl)amino)pyrimidin-4-yl)amino)-5-fluorophenyl)methanesulfonamide]	500 to 2000 nM
100 to 500 nM	1 to 25 nM	1 to 25 nM	1 to 25 nM	1 to 25 nM	CN1CCN(C2CCN(c3cc(Cl)c(Nc4ncc(Br)c(Nc5cc6c(cc5NS(C)(=O)=O)CCO6)n4)cc3Cl)CC2)CC1 [Example 217, N-(6-((5-bromo-2-((2,5-dichloro-4-(4-(4-methylpiperazin-1-yl)piperidin-1-yl)phenyl)amino)pyrimidin-4-yl)amino)-2,3-dihydrobenzofuran-5-yl)methanesulfonamide]	500 to 2000 nM
2000 to 10000 nM	25 to 100 nM	100 to 500 nM	25 to 100 nM	100 to 500 nM	COc1cc(N2CCC(N3CCN(C(F)(F)F)CC3)CC2)c(C)cc1Nc1ncc(Br)c(Nc2cc3c(cc2N(C)S(C)(=O)=O)CCO3)n1 [Example 255, N-(6-((5-bromo-2-((2-methoxy-5-methyl-4-(4-(4-(trifluoromethyl)piperazin-1-yl)piperidin-1-yl)phenyl)amino)pyrimidin-4-yl)amino)-2,3-dihydrobenzofuran-5-yl)-N-methylmethanesulfonamide]	2000 to 10000 nM
100 to 500 nM	100 to 500 nM	100 to 500 nM	1 to 25 nM	25 to 100 nM	COc1ccc(N(C)S(C)(=O)=O)c(Nc2nc(Nc3cc(C)c(N4CCC(N5CCN(C)CC5)CC4)cc3OC)ncc2Cl)c1 [Example 260, N-(2-((5-chloro-2-((2-methoxy-5-methyl-4-(4-(4-methylpiperazin-1-yl)piperidin-1-yl)phenyl)amino)pyrimidin-4-yl)amino)-4-methoxyphenyl)-N-methylmethanesulfonamide]	2000 to 10000 nM
500 to 2000 nM	25 to 100 nM	25 to 100 nM	100 to 500 nM	100 to 500 nM	Cc1cc(Nc2ncc(Br)c(Nc3cc4c(cc3NS(C)(=O)=O)CCO4)n2)c(Cl)cc1N1CCC(N2CCN(C)CC2)CC1 [Example 175, N-(6-((5-bromo-2-((2-chloro-5-methyl-4-(4-(4-methylpiperazin-1-yl)piperidin-1-yl)phenyl)amino)pyrimidin-4-yl)amino)-2,3-dihydrobenzofuran-5-yl)methanesulfonamide]	> 10000 nM
